According to patent publication US9943473B2, “Zinc lysine halide complex” (Colgate-Palmolive Company, priority 2012, dated 2018):

What was measured:
[1] = Hydrolysis reaction: pH and turbidity of diluted ZLC solutions before and after aging; type: physicochemical; conditions: for pH after aging / turbidity after aging: aged at 37° C. over 5 hours
Description: A 185 mg/ml solution of ZLC is prepared and diluted several-fold and aged in a 37° C. oven over 5 hours for turbidity studies. […] Turbidity of the solutions is measured using a nephelometer, results being given in nephelometric turbidity units (NTU).
The precipitates formed in the 8×, 16× and 32× diluted solutions are collected by centrifugation and identified as crystalline ZnO by PXRD. From the supernatant, a single crystal is grown and shown by X-ray diffraction to be Lysine Monohydrochloride Dihydrate (Lysine.HCl.2H2O).

[2] = biological target: Bovine Serum Albumin (BSA) (Bos taurus, UniProt P02769); experiment: Flocculation of ZLC in the presence of protein (turbidity, pH); conditions: ZLC about 15 mg/ml, 5 hours at 37° C.
Description: Turbidity and pH of solutions are measured 5 hours after the mixtures were placed in a 37° C. oven, and the results are shown in Table 6.

C. minutissimum = experiment: Zone of inhibition test on TSA plates; type: cell-based
Description: (§1) A zone of inhibition test is conducted on several materials: zinc oxide and amino acid hydrohalide alone and a mixture formed from zinc oxide and amino acid hydrohalide. The method involves making a lawn of freshly prepared bacterial culture on TSA (trypticase soy agar) plates. Sterile filter paper discs are seeded with 20 μl of test sample (supernatant or mixture). Sample-coated filter paper discs are air dried and applied onto the bacterial lawn on TSA plates. Plates are incubated for 20 hours at 37° C.

S. aureus = experiment: Zone of inhibition test on TSA plates; type: cell-based
Description: as §1

S. epider. = experiment: Zone of inhibition test on TSA plates; type: cell-based
Description: as §1

C. xerosis = experiment: Zone of inhibition test on TSA plates; type: cell-based
Description: as §1

[3] = general description; cited from earlier work
[4] = sample 1: DI water, 0% BSA, pH 6.4
[5] = Table 3, sample form not stated

Chain of Bovine Serum Albumin (BSA) (P02769 25-607): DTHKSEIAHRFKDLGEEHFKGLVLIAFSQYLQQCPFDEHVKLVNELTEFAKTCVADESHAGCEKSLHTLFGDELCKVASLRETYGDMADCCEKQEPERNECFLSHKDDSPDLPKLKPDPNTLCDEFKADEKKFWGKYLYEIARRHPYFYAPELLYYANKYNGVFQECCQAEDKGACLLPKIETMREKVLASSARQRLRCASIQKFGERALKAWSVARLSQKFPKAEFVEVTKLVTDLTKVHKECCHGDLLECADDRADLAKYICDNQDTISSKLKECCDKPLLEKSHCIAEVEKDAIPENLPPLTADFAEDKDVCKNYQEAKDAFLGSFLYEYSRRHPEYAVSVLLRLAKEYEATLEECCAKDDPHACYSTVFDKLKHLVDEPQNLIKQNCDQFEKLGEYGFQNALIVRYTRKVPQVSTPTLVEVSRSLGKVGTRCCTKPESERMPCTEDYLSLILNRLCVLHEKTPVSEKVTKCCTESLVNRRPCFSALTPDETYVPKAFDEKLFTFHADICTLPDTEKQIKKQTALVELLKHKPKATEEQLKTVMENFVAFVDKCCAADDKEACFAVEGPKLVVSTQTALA

Q: With `NCCCCC(N)C(=O)O.NCCCCC(N)C(=O)O.O.O.[Cl-].[Cl-].[Zn+2]` (stereo not drawn) [ZLC, [Zn(Lysine)2Cl]^+Cl^−.2H2O] as the molecule, how does the initial turbidity ([1]; 5.78 mg/ml) read?
A: Its initial turbidity is 40.1 NTU.

Q: And the pH after aging ([1]; 5.78 mg/ml)?
A: Its pH after aging is 8.

Q: What about the turbidity after aging ([1]; 5.78 mg/ml) of the same molecule?
A: The turbidity after aging was over 1000 NTU.

Q: What about the initial turbidity ([1]; 11.56 mg/ml) of the same molecule?
A: The initial turbidity was 14.8 NTU.

Q: And the pH after aging ([1]; 11.56 mg/ml)?
A: The pH after aging was 7.8.

Q: What about the turbidity after aging ([1]; 11.56 mg/ml) of the same molecule?
A: The turbidity after aging was over 1000 NTU.

Q: And the initial turbidity ([1]; 23.125 mg/ml)?
A: Its initial turbidity is 0.7 NTU.

Q: And the pH after aging ([1]; 23.125 mg/ml)?
A: The pH after aging was 7.7.

Q: What about the turbidity after aging ([1]; 23.125 mg/ml) of the same molecule?
A: The turbidity after aging was 247.4 NTU.

Q: And the initial turbidity ([1]; 46.25 mg/ml)?
A: Its initial turbidity is 1.5 NTU.

Q: And the pH after aging ([1]; 46.25 mg/ml)?
A: The pH after aging was 7.4.

Q: And the turbidity after aging ([1]; 46.25 mg/ml)?
A: The turbidity after aging was 2.8 NTU.

Q: What about the initial turbidity ([1]; 92.5 mg/ml) of the same molecule?
A: Its initial turbidity is 2.8 NTU.

Q: And the pH after aging ([1]; 92.5 mg/ml)?
A: The pH after aging was 7.

Q: And the turbidity after aging ([1]; 92.5 mg/ml)?
A: The turbidity after aging was 2.6 NTU.

Q: What about the initial turbidity ([1]; 185 mg/ml) of the same molecule?
A: Its initial turbidity is 4.7 NTU.

Q: What about the pH after aging ([1]; 185 mg/ml) of the same molecule?
A: The pH after aging was 6.8.

Q: And the turbidity after aging ([1]; 185 mg/ml)?
A: The turbidity after aging was 4.1 NTU.

Q: What about the “stability of the complex upon dilution” value ([1]; 8×, 16× and 32× diluted solutions, precipitate identified as crystalline ZnO by PXRD) of the same molecule?
A: Its value is “disassociates upon dilution, with consequent precipitation of zinc oxide”.

Q: And the Turbidity [2, 4]?
A: Its Turbidity is 357 NTU.

Q: What about the pH [2, 4] of the same molecule?
A: Its pH is 8.

Q: What about the Turbidity ([2]; sample 2: 1% BSA, pH 7.2) of the same molecule?
A: Its Turbidity is over 1000 NTU.

Q: What about the pH ([2]; sample 2: 1% BSA, pH 7.2) of the same molecule?
A: The pH was 8.2.

Q: What about the Turbidity ([2]; sample 3: 1% BSA, pH adjusted to 5.1) of the same molecule?
A: Its Turbidity is over 1000 NTU.

Q: With `NCCCC[C@H](N)C(=O)O` [Lysine 4%, lysine] as the molecule, how does the “Zone of Inhibition” value (C. minutissimum; [5]) read?
A: The value was 0 mm.

Q: What about the “Zone of Inhibition” value (S. aureus; [5]) of the same molecule?
A: Its value is 0 mm.

Q: Which “Zone of Inhibition” value (C. minutissimum; [5]) does the source give for `N=C(N)NCCC[C@H](N)C(=O)O` [Arginine 4%, arginine] here?
A: Its value is 0 mm.

Q: And the “Zone of Inhibition” value (S. aureus; [5])?
A: The value was 0 mm.

Q: For `[O]=[Zn]` [ZnO(4%), zinc oxide], which “Zone of Inhibition” value (S. epider.; Dry Sample, Mixture) is on record?
A: The value was 10 mm.

Q: And the “Zone of Inhibition” value (S. epider.; Dry Sample, Supernatant)?
A: Its value is 0 mm.

Q: What about the “Zone of Inhibition” value (S. epider.; Wet Sample, Mixture) of the same molecule?
A: Its value is 12 mm.

Q: What about the “Zone of Inhibition” value (S. epider.; Wet Sample, Supernatant) of the same molecule?
A: Its value is 0 mm.

Q: What about the “Zone of Inhibition” value (C. xerosis; Dry Sample, Mixture) of the same molecule?
A: Its value is 0 mm.

Q: And the “Zone of Inhibition” value (C. xerosis; Dry Sample, Supernatant)?
A: Its value is 0 mm.

Q: And the “Zone of Inhibition” value (C. xerosis; Wet Sample, Mixture)?
A: The value was 0 mm.

Q: What about the “Zone of Inhibition” value (C. xerosis; Wet Sample, Supernatant) of the same molecule?
A: Its value is 0 mm.

Q: What about the “Zone of Inhibition” value (S. aureus; Dry Sample, Mixture) of the same molecule?
A: Its value is 7 mm.

Q: And the “Zone of Inhibition” value (S. aureus; Dry Sample, Supernatant)?
A: The value was 0 mm.

Q: And the “Zone of Inhibition” value (S. aureus; Wet Sample, Mixture)?
A: Its value is 7 mm.

Q: And the “Zone of Inhibition” value (S. aureus; Wet Sample, Supernatant)?
A: The value was 0 mm.

Q: And the solubility in water [3]?
A: The solubility in water was “insoluble in water”.

Q: For `Cl.NCCCC[C@H](N)C(=O)O` [Lysine-HCl 23.2%, lysine hydrochloride], which “Zone of Inhibition” value (S. epider.; Dry Sample, As is) is on record?
A: Its value is 0 mm.

Q: And the “Zone of Inhibition” value (S. epider.; Wet Sample, As is)?
A: The value was 0 mm.

Q: And the “Zone of Inhibition” value (C. minutissimum; [5])?
A: Its value is 0 mm.

Q: What about the “Zone of Inhibition” value (C. xerosis; Dry Sample, As is) of the same molecule?
A: Its value is 0 mm.

Q: And the “Zone of Inhibition” value (C. xerosis; Wet Sample, As is)?
A: The value was 0 mm.

Q: What about the “Zone of Inhibition” value (S. aureus; Dry Sample, As is) of the same molecule?
A: The value was 0 mm.

Q: What about the “Zone of Inhibition” value (S. aureus; [5]) of the same molecule?
A: Its value is 0 mm.

Q: And the “Zone of Inhibition” value (S. aureus; Wet Sample, As is)?
A: Its value is 0 mm.

Q: With `[Cl-].[Cl-].[OH-].[OH-].[OH-].[OH-].[OH-].[OH-].[OH-].[OH-].[Zn+2].[Zn+2].[Zn+2].[Zn+2].[Zn+2]` [TBZC (4%), zinc chloride hydroxide monohydrate] as the molecule, how does the “Zone of Inhibition” value (C. minutissimum; Table 3, Mixture) read?
A: Its value is 7 mm.

Q: What about the “Zone of Inhibition” value (C. minutissimum; Table 3, Supernat) of the same molecule?
A: The value was 7 mm.
